Assay results: patent US11931424B2, “Combination MCL-1 inhibitors with anti-body drug conjugates” (Gilead Sciences, Inc., priority 2021, dated 2024)

System: panel of breast cancer cell lines
Test: Compound A with targeted agents and chemotherapies, 72-hour in vitro proliferation assays
Type: cell-based
Conditions: compound A × partner, 72-hour proliferation

CCOc1cc2ncc(C#N)c(Nc3ccc(OCc4ccccn4)c(Cl)c3)c2cc1NC(=O)/C=C/CN(C)C [Neratinib]
Best CI (AU565 cell line): 0.40
Bliss Volume (AU565 cell line): 18.09
HSA volume (AU565 cell line): 11.74
Loewe Volume (AU565 cell line): 10.72
Synergy Score (AU565 cell line): 19.43
Best CI (BT-20 cell line): 0.05
Bliss Volume (BT-20 cell line): 38.29
HSA volume (BT-20 cell line): 28.06
Loewe Volume (BT-20 cell line): 28.33
Synergy Score (BT-20 cell line): 58.64
Best CI (CAL-51 cell line): 0.29
Bliss Volume (CAL-51 cell line): 6.99
HSA volume (CAL-51 cell line): 4.62
Loewe Volume (CAL-51 cell line): 6.71
Synergy Score (CAL-51 cell line): 14.86
Best CI (CAL-85-1 cell line): 0.13
Bliss Volume (CAL-85-1 cell line): 22.07
HSA volume (CAL-85-1 cell line): 18.05
Loewe Volume (CAL-85-1 cell line): 16.51
Synergy Score (CAL-85-1 cell line): 28.31
Best CI (CAL-120 cell line): 0.82
Bliss Volume (CAL-120 cell line): 4.43
HSA volume (CAL-120 cell line): 4.29
Loewe Volume (CAL-120 cell line): 3.99
Synergy Score (CAL-120 cell line): 11.20
Best CI (CAL-148 cell line): 0.21
Bliss Volume (CAL-148 cell line): 18.81
HSA volume (CAL-148 cell line): 13.97
Loewe Volume (CAL-148 cell line): 17.68
Synergy Score (CAL-148 cell line): 29.60
Best CI (CAMA-1 cell line): 0.40
Bliss Volume (CAMA-1 cell line): 26.19
HSA volume (CAMA-1 cell line): 5.28
Loewe Volume (CAMA-1 cell line): 3.50
Synergy Score (CAMA-1 cell line): 6.88
Best CI (DU-4475 cell line): 0.43
Bliss Volume (DU-4475 cell line): 10.55
HSA volume (DU-4475 cell line): 1.06
Loewe Volume (DU-4475 cell line): 0.39
Synergy Score (DU-4475 cell line): 2.06
Best CI (EVSA-T cell line): 0.51
Bliss Volume (EVSA-T cell line): 2.50
HSA volume (EVSA-T cell line): 1.44
Loewe Volume (EVSA-T cell line): 1.31
Synergy Score (EVSA-T cell line): 1.92
Best CI (HCC38): 1.06
Bliss Volume (HCC38): 17.98
HSA volume (HCC38): 8.02
Loewe Volume (HCC38): 11.04
Synergy Score (HCC38): 11.55
Best CI (HCC70): 0.09
Bliss Volume (HCC70): 36.07
HSA volume (HCC70): 21.70
Loewe Volume (HCC70): 21.51
Synergy Score (HCC70): 42.47
Best CI (HCC1143): 0.47
Bliss Volume (HCC1143): 14.84
HSA volume (HCC1143): 7.69
Loewe Volume (HCC1143): 8.83
Synergy Score (HCC1143): 12.39
Best CI (HCC1569): 0.76
Bliss Volume (HCC1569): 17.69
HSA volume (HCC1569): 11.68
Loewe Volume (HCC1569): 14.89
Synergy Score (HCC1569): 23.33
Best CI (HCC1806): 0.15
Bliss Volume (HCC1806): 25.34
HSA volume (HCC1806): 19.39
Loewe Volume (HCC1806): 21.61
Synergy Score (HCC1806): 37.41
Best CI (HCC1937): 0.84
Bliss Volume (HCC1937): 13.93
HSA volume (HCC1937): 5.77
Loewe Volume (HCC1937): 10.37
Synergy Score (HCC1937): 13.10
Best CI (HCC1954): 0.06
Bliss Volume (HCC1954): 37.73
HSA volume (HCC1954): 19.30
Loewe Volume (HCC1954): 19.31
Synergy Score (HCC1954): 38.93
Best CI (HCC2218): 0.05
Bliss Volume (HCC2218): 30.06
HSA volume (HCC2218): 10.84
Loewe Volume (HCC2218): 8.50
Synergy Score (HCC2218): 20.85
Best CI (HDQ-P1): 0.57
Bliss Volume (HDQ-P1): 10.17
HSA volume (HDQ-P1): 9.28
Loewe Volume (HDQ-P1): 9.93
Synergy Score (HDQ-P1): 17.02
Best CI (HMC-1-8): 0.24
Bliss Volume (HMC-1-8): 19.74
HSA volume (HMC-1-8): 14.99
Loewe Volume (HMC-1-8): 15.17
Synergy Score (HMC-1-8): 30.76
Best CI (JIMT-1): 0.18
Bliss Volume (JIMT-1): 10.52
HSA volume (JIMT-1): 11.00
Loewe Volume (JIMT-1): 11.11
Synergy Score (JIMT-1): 17.62
